Literature values in article PMC3598812, “Evaluation of Anti-Hyperalgesic and Analgesic Effects of Two Benzodiazepines in Human Experimental Pain: A Randomized Placebo-Controlled Study” (PLoS ONE, 2013).

Key:
[1] = trial protocol, cited from earlier work
[2] = test system: patients / volunteers; conditions: placebo-controlled, double-blind trial, 114 outpatients with anxiety; mean doses 59 mg clobazam daily, 25 mg diazepam daily; ref Micromedex 2009; cited from earlier work
[3] = test system: healthy male subjects; set-up: method as in PMID 19038771; conditions: capsaicin model, previous study; standard deviation 11.54; cited from earlier work

CCOC(=O)c1ncn2c1CN(C)C(=O)c1cc(F)ccc1-2 [Flumazenil]
t1/2 ([1]; iv): about 50 minutes

O=C1CC(=O)N(c2ccccc2)c2cc(Cl)ccc2N1 [N-desmethylclobazam]
Half life (t1/2) ([1]; drug background): 50 h

CN1C(=O)CN=C(c2ccccc2)c2cc(Cl)ccc21 [diazepam]
Dizziness, share of treated patients [2]: 11%
Sedation, share of treated patients [2]: 44%

CC(C)C[C@H](CN)CC(=O)O [pregabalin]
Reduction in the area of hyperalgesia [3]: 10.91 cm^2
